Data on three compounds can be found in patent US20090081721A1, “HIGH-THROUGHPUT CELL ASSAYS” (The Regents of the University of California, priority 2007, published 2009).

Converted amounts (≈) assume the structure as drawn. Where two headings read alike, the source gives them in different places. Where only a bound is given, the exact number is not on record here.

One test has as its system E. coli. Kind of test: Isothermal titrative calorimetry (ITC) susceptibility test, power output and CFUs recovered. The test is classed as cell-based. Particulars: for Exponential increase in energy after injection (ITC thermogram): 10^4 wild-type antibiotic susceptible E. coli, 1 ml Mueller-Hinton broth, injection at 7,200 sec, 14,400 sec total. The method, then:
(§1) In general, the susceptibility of bacterial strains can be tested by loading the chamber of an isothermal titrative calorimeter with a single bacterial strain, holding a constant temperature of 37° C. for a set time period (e.g., 14,400 seconds (4 hours)) and monitoring the power produced by the bacteria before and after application of an antimicrobial. Following the loading of the calorimeter, there is an initial energy spike within the first 1500 seconds (25 minutes) that is a normal equilibration period for a calorimeter. After the instrument and sample have equilibrated, the energy produced by a normally growing and dividing culture increases in an exponential manner, similar to a log phase growth curve of a microbial culture based on optical density (OD). Like the exponential increase in OD observed for a growing culture, the exponential increase in energy produced also seems to be associated with an increased number of cells in the medium because the number of cells retrieved from the calorimeter following a susceptibility test increases by about 2-3 orders of magnitude. (See Table 1).
In one aspect, the method is practiced by loading into a Isothermal Titrative Calorimetry (ITC) various drugs or antibiotics to which the cells such as microorganisms may be susceptible. The antibiotics can be loaded at different rates and at different growth densities. The difference in power produced by the sample co-cultured with the antibiotics are then measured and compared to the same untreated culture or culture treated with water. The data is differentiated to find the maximum growth rate (dP/dt), and integrated to determine the total microjoules produced by the culture after an antimicrobial was injected. If the organism is resistant to the antibiotic, the maximum growth rate is similar to that when the co-cultured with water. If the microorganism is sensitive to the antibiotic, maximum dP/dt and total microjoule (μJ) for the antimicrobial treated sample are much lower than the untreated sample or the sample treated with water. […]

Test [1] concerns K. pneumoniae. Described as above. It is filed as cell-based, Klebsiella pneumoniae. Particulars: for Number of microbes (CFUs) in calorimetry chamber after incubation: 10^5 loaded, 4-hour monitoring; for Max dP/dt (100 save) after injection / Total μJ produced after injection: ciprofloxacin susceptible, ampicillin resistant strain. The method, then:
as §1
(§2) In one aspect, the method is practiced by loading into a Isothermal Titrative Calorimetry (ITC) various drugs or antibiotics to which the cells such as microorganisms may be susceptible. The antibiotics can be loaded at different rates and at different growth densities. The difference in power produced by the sample co-cultured with the antibiotics are then measured and compared to the same untreated culture or culture treated with water. The data is differentiated to find the maximum growth rate (dP/dt), and integrated to determine the total microjoules produced by the culture after an antimicrobial was injected. If the organism is resistant to the antibiotic, the maximum growth rate is similar to that when the co-cultured with water. If the microorganism is sensitive to the antibiotic, maximum dP/dt and total microjoule (μJ) for the antimicrobial treated sample are much lower than the untreated sample or the sample treated with water. See FIGS. 6 through 9 for exemplary ITC-generated growth data.
(§3) The susceptibility of bacterial strains was tested by loading the chamber of an Isothermal Titrative Calorimeter (Calorimetry Sciences Corporation (CSC) and others are commercially available, see microcal.com/index, last accessed on Dec. 28, 2007) with a single bacterial strain, holding a constant temperature of 37° C. for 14,400 seconds (4 hours) and monitoring the power produced by the bacteria before and after application of an antimicrobial. Following the loading of the calorimeter, there is an initial energy spike within the first 1500 seconds (25 minutes) that is a normal equilibration period for a calorimeter. After the instrument and sample have equilibrated, the energy produced by a normally growing and dividing culture increases in an exponential manner, similar to a log phase growth curve of a microbial culture based on optical density (OD). Like the exponential increase in OD observed for a growing culture, the exponential increase in energy produced also seems to be associated with an increased number of cells in the medium because the number of cells retrieved from the calorimeter following a susceptibility test increases by 2-3 orders of magnitude. (See Table 1). A second spike in heat transfer being produced/absorbed in the calorimeter is associated with injection of either water or an antimicrobial into the injection chamber. This spike can be attributed to the enthalpy associated with dilution of the injected solution into the growth medium. […] If a strain is susceptible, a rise in power is not observed. If the strain is resistant to the agent or antimicrobial, the exponential rise in power is observed.
(§4) […]. H2O, ampicillin, or ciprofloxacin was injected into the chamber at 7,200 sec (2 hours). […]

In test [2] the test system is P. mirabilis. The description is as above. It is filed as cell-based, Proteus mirabilis. Conditions: for Exponential increase in power (μW) after injection (ITC thermogram): injection at 7,200 sec, 14,400 sec total; for Number of microbes (CFUs) in calorimetry chamber after incubation: 10^5 loaded, 4-hour monitoring; for Max dP/dt (100 save) after injection / Total μJ produced after injection: ciprofloxacin resistant, ampicillin resistant strain. The method, then: as §1, §2, §3
. H2O, ampicillin, or ciprofloxacin was injected into the chamber at 7,200 sec (2 hours). […]

The subject of test [3] is A. baumanii. The description is as above. The test is classed as cell-based, Acinetobacter baumanii. Conditions: for Exponential increase in power (μW) after injection (ITC thermogram): 10^5 A. baumanii, 1 ml Mueller-Hinton broth, injection at 7,200 sec, 14,400 sec total; for Number of microbes (CFUs) in calorimetry chamber after incubation: 10^5 loaded, 4-hour monitoring; for Max dP/dt (100 save) after injection / Total μJ produced after injection: ciprofloxacin resistant, ampicillin resistant strain. The procedure: as §1, §2, §3, §4

The test system of test [4] is K. pneumoniae. Kind of test: Minimum inhibitory concentration (traditional susceptibility testing). The test is classed as cell-based. Conditions: Klebsiella pneumoniae. The method, then:
(§5) Minimum inhibitory concentrations are determined by inoculating several cultures of bacteria in separate tubes or wells of broth that typically contain a 2-fold serial dilution of an antimicrobial.

In test [5] the test system is P. mirabilis. The description is as above. The test is classed as cell-based. Conditions: Proteus mirabilis. The method, then:
as §5

Test [6] relates to A. baumanii. Described as above. Particulars: Acinetobacter baumannii; wild-type ampicillin and ciprofloxacin resistant A. baumanii strain used in ITC. The test is classed as cell-based. The method, then:
as §5

Where [7] appears, read: 10^5 P. mirabilis, 1 ml Mueller-Hinton broth.

On to `CC1(C)S[C@@H]2[C@H](NC(=O)[C@H](N)c3ccccc3)C(=O)N2[C@H]1C(=O)O` [Ampicillin, ampicillin], for which the “Exponential increase in energy after injection (ITC thermogram)” value in the test on E. coli was “exponential increase in energy only continued in the sample injected with H2O”. In addition, the “Exponential increase in power (μW) after injection (ITC thermogram)” value in the test on K. pneumoniae [1] (10^5 K. pneumoniae, 1 ml Mueller-Hinton broth, injection at 7,200 sec, 14,400 sec total) was “exponential increase in power continued in the sample injected with H2O and ampicillin”; with P. mirabilis [2] (setting [7]) it was “exponential increase in power continued in all three samples”; with A. baumanii [3], “exponential increase in power continued in all three samples”. The “Number of microbes (CFUs) in calorimetry chamber after incubation” value is given as 2.0 × 10^7 CFUs in the test on K. pneumoniae [1] (Ampicillin 40 μg/ml), 9.0 × 10^5 CFUs with P. mirabilis [2] (Ampicillin 40 μg/ml) and 3.0 × 10^7 CFUs in the test on A. baumanii [3] (Ampicillin 40 μg/ml). Moreover, the “Max dP/dt (100 save) after injection” value in the test on K. pneumoniae [1] (Ampicillin 40 μg/ml) is on record as 0.029; in the test on P. mirabilis [2] (Ampicillin 40 μg/ml), 0.027; in the test on A. baumanii [3] (Ampicillin 40 μg/ml) it was 0.026. For the same compound, the entries for the “Total μJ produced after injection” value in the test on K. pneumoniae [1] (Ampicillin 40 μg/ml), in the test with P. mirabilis [2] (Ampicillin 40 μg/ml) and in the test with A. baumanii [3] (Ampicillin 40 μg/ml) were 139,108 μJ, 161,844 μJ and 91,240 μJ, respectively. The minimum inhibitory concentration (MIC) in the test on K. pneumoniae [4] and against P. mirabilis [5] was above 1020 µg/mL each time.
For `O=C(O)c1cn(C2CC2)c2cc(N3CCNCC3)c(F)cc2c1=O` [Ciprofloxacin, ciprofloxacin], the “Exponential increase in energy after injection (ITC thermogram)” value in the test with E. coli is “exponential increase in energy only continued in the sample injected with H2O”. Also, the “Number of microbes (CFUs) in calorimetry chamber after incubation” value is given as 1.7 × 10^7 CFUs in the test on E. coli (Ciprofloxacin 2 μg/ml, 10^4 loaded, 4-hour monitoring); 3.6 × 10^7 CFUs in the test with K. pneumoniae [1] (Ciprofloxacin 2 μg/ml); 4.1 × 10^6 CFUs with P. mirabilis [2] (Ciprofloxacin 2 μg/ml); 2.1 × 10^7 CFUs in the test on A. baumanii [3] (Ciprofloxacin 2 μg/ml). The entries for the “Max dP/dt (100 save) after injection” value with K. pneumoniae [1] (Ciprofloxacin 2 μg/ml), with P. mirabilis [2] (Ciprofloxacin 2 μg/ml) and in the test with A. baumanii [3] (Ciprofloxacin 2 μg/ml) were 0.003, 0.012 and 0.027, respectively. The “Total μJ produced after injection” value was 24,676 μJ in the test with K. pneumoniae [1] (Ciprofloxacin 2 μg/ml), 79,439 μJ in the test on P. mirabilis [2] (Ciprofloxacin 2 μg/ml) and 100,846 μJ in the test on A. baumanii [3] (Ciprofloxacin 2 μg/ml). For the same compound, the “Rate of exponential increase in power after injection, compared with ampicillin or H2O” value with P. mirabilis [2] (10^5 P. mirabilis, 1 ml Mueller-Hinton broth, injection at 7,200 sec) is on record as “lower than for ampicillin or H2O”. The “Exponential increase in power (μW) after injection (ITC thermogram)” value in the test on P. mirabilis [2] (setting [7]) and in the test on A. baumanii [3] was “exponential increase in power continued in all three samples” throughout. Moreover, the MIC (in general, the smallest concentration in the dilution series that meets the test's criterion for growth inhibition) with A. baumanii [6] is above 32 µg/mL; in the test with P. mirabilis [5] (ampicillin resistant, weakly ciprofloxacin resistant P. mirabilis strain used in ITC, read-out: MIC), 4 µg/mL (≈ 12.1 µM).
In the case of `CC(C)(O/N=C(\C(=O)N[C@@H]1C(=O)N2C(C(=O)[O-])=C(C[n+]3ccccc3)CS[C@H]12)c1csc(N)n1)C(=O)O` [ceftazidime], the minimum inhibitory concentration (MIC) in the test with P. mirabilis [5] stood at 128 µg/mL (≈ 234 µM).
